Laboratory results: patent US12630564B2, “Internal cyclic sulphiamidine amide-aryl amide compound and use thereof for treating hepatitis B” (SHANGHAI LONGWOOD BIOPHARMACEUTICALS CO., LTD., priority 2019, dated 2026)

How the values were obtained:
Format in all cases: cell-based
HepG2 cells = test: Determination of cytotoxicity, HepG2 cells, resazurin assay (Experiment 3); settings: 4 days
Description: (§1) Experiment 3: Determination of Cytotoxicity
(§2) The cytotoxicity of the test compound was tested using HepG2 cells. The cells were incubated for 4 days in the presence of the test compound. Cell activity was assessed using the resazurin assay.

[1] = as above; settings: human
Description: as §1, §2

[2] = test system: HBV DNA in the supernatant of HepG2.2.15; test: Determination of anti-HBV activity in HepG2.2.15 cell, HBV DNA in supernatant by qPCR (Experiment 2); settings: Hepatitis B virus, HepG2.2.15, HepG2.2.15 cells
Description: Experiment 2: Determination of Anti-HBV Activity in HepG2.2.15 Cell
• QIAamp 96 DNA Blood Kit (12) (Qiagen, Item No. 51162); • FastStart Universal Probe Master (Roche, Item No. 04914058001); • Cell-titer Glo Testing Reagent (Promega, Item No. G7573).
Compound dilution: all the compounds for in vitro anti-HBV activity assay and cytotoxicity assay were 3-fold diluted into 8 concentrations. The final starting concentration of the tested compound was 30 μM, the final starting concentration of reference compound GLS4 was 1 μM, and the final concentration of DMSO was 0.5%.
HepG2.2.15 cells (4×10^4 cells/well) was inoculated into 96-well plates and cultured overnight at 37° C., 5% CO2. On the second day, fresh culture medium containing different concentrations of compounds was added into the culture wells. On the fifth day, the old culture solution in the culture well was aspirated and fresh culture medium containing different concentrations of the compound was added.
On the eighth day, the supernatant in the culture well was collected for extraction of HBV DNA, and the content of HBV DNA in the supernatant of HepG2.2.15 was detected by qPCR. After the supernatant was collected, the medium and Cell-titer Glo reagent were added into the culture well, and the chemiluminescence value of each well was measured by microplate reader.
The activity calculation formula was as follows: Y=Bottom+(Top−Bottom)/(1+10^((Log IC50−X)*HillSlope)); • wherein, • X represents the logarithm of the concentration, Y represents the effect value, and Y starts from the bottom and fits to the top by S type fitting.
Bottom represents the bottom of the curve;
Top represents the top of the curve;
HillSlope represents the absolute value of the maximum slope of the curve.

With `CC(C)[C@H]1C=Cc2c(cn(C)c2C(=O)Nc2ccc(F)c(C#N)c2)S(=N)(=O)N1` (single isomer, unassigned) [Compound 10b2] the CC50 (HepG2 cells) was greater than 30000 nM.

Work on `CC(C)[C@@H]1C=Cc2c(cn(C)c2C(=O)Nc2ccc(F)c(C#N)c2)S(=N)(=O)N1` (single isomer, unassigned) [Compound 10h2] yielded a CC50 (HepG2 cells) greater than 30000 nM.

Compound `Cn1cc2c(c1C(=O)Nc1ccc(F)c(C#N)c1)CC[C@H](C1CC1)NS2(=N)=O` (single isomer, unassigned) [Compound 100a01] has a CC50 at 4 days [1] greater than 30000 nM.

With `Cn1cc2c(c1C(=O)Nc1ccc(F)c(C#N)c1)CC[C@H](C1CC1)NS2(=N)=O` (single isomer, unassigned) [Compound 100a02] the CC50 (HepG2 cells) was greater than 30000 nM.

In the case of `Cn1cc2c(c1C(=O)Nc1ccc(F)c(C#N)c1)C=C[C@H](C1CC1)NS2(=N)=O` (single isomer, unassigned) [Compound 100a04], the EC50 [2] is reported as 0.1 to 100 nM and the CC50 at 4 days [1] is reported as greater than 30000 nM.

`Cn1cc2c(c1C(=O)Nc1ccc(F)c(C#N)c1)CC[C@H](CC1CC1)NS2(=N)=O` (single isomer, unassigned) [Compound 100b02] gave an EC50 [2] of 0.1 to 100 nM and a CC50 at 4 days [1] greater than 30000 nM.

`Cn1cc2c(c1C(=O)Nc1ccc(F)c(C#N)c1)C=C[C@H](CC1CC1)NS2(=N)=O` (single isomer, unassigned) [Compound 100b04] showed an EC50 [2] of 0.1 to 100 nM and a CC50 at 4 days [1] greater than 30000 nM.

`Cn1cc2c(c1C(=O)Nc1ccc(F)c(C#N)c1)CC[C@H](Cc1ccc(F)cc1)NS2(=N)=O` (single isomer, unassigned) [Compound 100c02] showed an EC50 [2] of 0.1 to 100 nM and a CC50 at 4 days [1] greater than 30000 nM.

In the case of `Cn1cc2c(c1C(=O)Nc1ccc(F)c(C#N)c1)C=C[C@H](Cc1ccc(F)cc1)NS2(=N)=O` (single isomer, unassigned) [Compound 100c04], the EC50 [2] is reported as 0.1 to 100 nM and the CC50 at 4 days [1] is reported as greater than 30000 nM.

Compound `COc1ccc(C[C@H]2CCc3c(cn(C)c3C(=O)Nc3ccc(F)c(C#N)c3)S(=N)(=O)N2)cc1` (single isomer, unassigned) [Compound 100c14] has an EC50 [2] of 0.1 to 100 nM and a CC50 at 4 days [1] greater than 30000 nM.

`COc1ccc(C[C@H]2C=Cc3c(cn(C)c3C(=O)Nc3ccc(F)c(C#N)c3)S(=N)(=O)N2)cc1` (single isomer, unassigned) [Compound 100c16] gave an EC50 [2] of 0.1 to 100 nM and a CC50 at 4 days [1] greater than 30000 nM.
